The test addresses T1, human SGLT1 (Homo sapiens, UniProt P13866).
T1 construct: expressed in transfected cells; host or cells: CHO cells (Flp-in CHO)
T1 sequence (P13866 1-664): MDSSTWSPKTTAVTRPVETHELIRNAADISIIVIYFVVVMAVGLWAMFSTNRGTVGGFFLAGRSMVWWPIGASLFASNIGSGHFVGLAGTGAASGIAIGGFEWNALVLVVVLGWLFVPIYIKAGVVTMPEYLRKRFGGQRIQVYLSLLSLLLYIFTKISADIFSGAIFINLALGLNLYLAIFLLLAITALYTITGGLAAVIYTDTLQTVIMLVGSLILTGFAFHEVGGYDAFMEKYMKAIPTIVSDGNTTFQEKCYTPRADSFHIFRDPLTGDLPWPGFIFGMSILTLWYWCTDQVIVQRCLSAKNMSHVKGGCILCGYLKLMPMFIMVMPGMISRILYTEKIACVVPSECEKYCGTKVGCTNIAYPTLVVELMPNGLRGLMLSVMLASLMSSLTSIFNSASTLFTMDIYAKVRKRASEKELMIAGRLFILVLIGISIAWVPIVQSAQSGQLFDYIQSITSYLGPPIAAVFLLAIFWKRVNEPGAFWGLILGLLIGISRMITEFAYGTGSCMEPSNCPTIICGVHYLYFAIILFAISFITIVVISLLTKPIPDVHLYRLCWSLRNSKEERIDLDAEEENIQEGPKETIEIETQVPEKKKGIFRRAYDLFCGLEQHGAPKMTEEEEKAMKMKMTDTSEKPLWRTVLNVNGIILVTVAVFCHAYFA
The test is described as follows: Determination of SGLT1 inhibitory activity ([14C]-AMG uptake in CHO cells expressing human SGLT1). Type of test: cell-based. As to conditions: CHO cells expressing human SGLT1, [14C]-AMG uptake, 37° C. for 1 hour. As to the method:
Mock-transfected FIP-in CHO cells (3×10^4 cells) and CHO cells expressing human SGLT1 gene were seeded into 96-well plates respectively. The cells were incubated for 12 hours. Each well of the 96-well plates was washed with 150 μL of sodium-free buffer once. To each well was added 50 μL of sodium-containing buffer containing test compounds having different concentrations and 0.5 μm [^14C]-AMG And the mixture in the well was incubated at 37° C. for 1 hour. To each well was added 150 μL of precooled sodium-free buffer to terminate the reaction. The cell pellet was washed with sodium free buffer three times and the residual liquid in well was removed. To each well was added 20 μL of precooled 100 mM NaOH, and the 96-well plates were vibrated at 900 rpm for 5 minutes. Scintillation fluid (80 μL) was added to each well which was then vibrated at 600 rpm for 5 minutes. The amount of 14C-AMG was quantitatively detected using liquid scintillation.

Each structure is given as a SMILES string.

Usually IC50 stands for the point on the concentration scale where inhibition reaches its midpoint. Lower therefore signals inhibition by little substance. With `Cc1ccc([C@]23OC[C@](C(C)(C)O)(O2)[C@@H](O)[C@H](O)[C@H]3O)cc1Cc1ccc(CCCC(=O)N2CCC[C@H]2C(=O)NCCN(C)C)cc1` [Example 11, (2S)—N-(2-Dimethylaminoethyl)-1-[4-[4-[[2-methyl-5-[(1S,2S,3S,4R,5S)-2,3,4-trihydroxy-1-(1-hydroxy-1-methyl-ethyl)-6,8-dioxabicyclo[3.2.1]octan-5-yl]phenyl]methyl]phenyl]butyryl]pyrrolidine-2-carboxamide], the IC50 came out at 5.75 nM.
Consider `Cc1ccc([C@]23OC[C@](C(C)(C)O)(O2)[C@@H](O)[C@H](O)[C@H]3O)cc1Cc1ccc(CCCC(=O)NC(C)(C)C(=O)NCCN2CCCC2)cc1` [Example 1, 2-Methyl-2-[4-[4-[[2-methyl-5-[(1S,2S,3S,4R,5S)-2,3,4-trihydroxy-1-(1-hydroxy-1-methyl-ethyl)-6,8-dioxabicyclo[3.2.1]octan-5-yl]phenyl]methyl]phenyl]butyrylamino]-N-(2-pyrrolidin-1-ylethyl)propionamide], for which inhibition was half-maximal at 1.73 nM (IC50). This IC50 lies about 3.3-fold lower than the previous one.
The molecule `Cc1ccc([C@]23OC[C@](C(C)(C)O)(O2)[C@@H](O)[C@H](O)[C@H]3O)cc1Cc1ccc(CCCC(=O)NC2(C(=O)NCCN3CC[C@@H](F)C3)CCCCC2)cc1` [Example 7, N-[2-[(3R)-3-fluoropyrrolidin-1-yl]ethyl]-1-[4-[4-[[2-methyl-5-[(1S,2S,3S,4R,5S)-2,3,4-trihydroxy-1-(1-hydroxy-1-methyl-ethyl)-6,8-dioxabicyclo[3.2.1]octane-5-yl]phenyl]methyl]phenyl]butyrylamino]cyclohexyl formamide] displayed an IC50 of 1.16 nM.

For the origin of these results see patent publication US11186602B2, “Glucopyranosyl derivative and use thereof” (SUNSHINE LAKE PHARMA CO., LTD., priority 2018, dated 2021).
